According to ChEMBL document CHEMBL1909046, “DrugMatrix in vitro pharmacology data”:

Experiments:
[1] = target: Voltage-gated inwardly rectifying potassium channel KCNH2 (Homo sapiens, UniProt Q12809); details: hek293; further: in other assays of this panel Not Active means under 50% inhibition at 10 µM
[2] = target: Mitogen-activated protein kinase 1 (Homo sapiens, UniProt P28482); test: DRUGMATRIX: Protein Serine/Threonine Kinase, ERK2 enzyme inhibition (substrate: Myelin Basic Protein); set-up: species or system Escherichia coli; details: Not Active = under 50% inhibition at 10 µM
Mitogen-activated protein kinase 1, sequence (P28482 whole entry): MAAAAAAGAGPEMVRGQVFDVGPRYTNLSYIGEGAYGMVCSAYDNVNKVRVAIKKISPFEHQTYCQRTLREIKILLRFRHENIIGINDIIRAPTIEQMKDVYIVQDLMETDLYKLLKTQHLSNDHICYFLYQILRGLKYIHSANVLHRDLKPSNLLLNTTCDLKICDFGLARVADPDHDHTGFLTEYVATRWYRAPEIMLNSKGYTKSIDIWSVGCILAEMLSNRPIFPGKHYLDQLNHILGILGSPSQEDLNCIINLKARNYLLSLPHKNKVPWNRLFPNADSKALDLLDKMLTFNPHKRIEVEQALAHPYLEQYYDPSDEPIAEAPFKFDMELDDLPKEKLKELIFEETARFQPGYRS

[3] = target: Mitogen-activated protein kinase 14 (Homo sapiens, UniProt Q16539); set-up: species or system Escherichia coli;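 further: inhibition of p38alpha enzyme activity in a biochemical kinase assay, with myelin basic protein serving as substrate; in other assays of this panel Not Active means under 50% inhibition at 10 µM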
Mitogen-activated protein kinase 14, sequence (Q16539 whole entry): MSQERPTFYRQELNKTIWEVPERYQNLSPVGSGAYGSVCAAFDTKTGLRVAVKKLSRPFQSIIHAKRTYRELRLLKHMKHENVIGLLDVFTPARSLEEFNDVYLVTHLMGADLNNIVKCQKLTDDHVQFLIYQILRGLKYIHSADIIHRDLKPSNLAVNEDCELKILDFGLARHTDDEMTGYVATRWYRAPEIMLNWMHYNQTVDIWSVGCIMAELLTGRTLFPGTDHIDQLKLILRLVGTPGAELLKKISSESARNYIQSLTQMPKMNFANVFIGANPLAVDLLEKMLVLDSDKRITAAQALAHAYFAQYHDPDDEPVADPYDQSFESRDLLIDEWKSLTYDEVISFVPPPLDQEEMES

[4] = target: T1, Nitric oxide synthase, inducible (Mus musculus, UniProt P29477); set-up: species or system Escherichia coli;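 further: inhibition of iNOS enzyme activity measured with L-arginine as substrate; in other assays of this panel Not Active means under 50% inhibition at 10 µM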
T1 sequence (P29477 whole entry): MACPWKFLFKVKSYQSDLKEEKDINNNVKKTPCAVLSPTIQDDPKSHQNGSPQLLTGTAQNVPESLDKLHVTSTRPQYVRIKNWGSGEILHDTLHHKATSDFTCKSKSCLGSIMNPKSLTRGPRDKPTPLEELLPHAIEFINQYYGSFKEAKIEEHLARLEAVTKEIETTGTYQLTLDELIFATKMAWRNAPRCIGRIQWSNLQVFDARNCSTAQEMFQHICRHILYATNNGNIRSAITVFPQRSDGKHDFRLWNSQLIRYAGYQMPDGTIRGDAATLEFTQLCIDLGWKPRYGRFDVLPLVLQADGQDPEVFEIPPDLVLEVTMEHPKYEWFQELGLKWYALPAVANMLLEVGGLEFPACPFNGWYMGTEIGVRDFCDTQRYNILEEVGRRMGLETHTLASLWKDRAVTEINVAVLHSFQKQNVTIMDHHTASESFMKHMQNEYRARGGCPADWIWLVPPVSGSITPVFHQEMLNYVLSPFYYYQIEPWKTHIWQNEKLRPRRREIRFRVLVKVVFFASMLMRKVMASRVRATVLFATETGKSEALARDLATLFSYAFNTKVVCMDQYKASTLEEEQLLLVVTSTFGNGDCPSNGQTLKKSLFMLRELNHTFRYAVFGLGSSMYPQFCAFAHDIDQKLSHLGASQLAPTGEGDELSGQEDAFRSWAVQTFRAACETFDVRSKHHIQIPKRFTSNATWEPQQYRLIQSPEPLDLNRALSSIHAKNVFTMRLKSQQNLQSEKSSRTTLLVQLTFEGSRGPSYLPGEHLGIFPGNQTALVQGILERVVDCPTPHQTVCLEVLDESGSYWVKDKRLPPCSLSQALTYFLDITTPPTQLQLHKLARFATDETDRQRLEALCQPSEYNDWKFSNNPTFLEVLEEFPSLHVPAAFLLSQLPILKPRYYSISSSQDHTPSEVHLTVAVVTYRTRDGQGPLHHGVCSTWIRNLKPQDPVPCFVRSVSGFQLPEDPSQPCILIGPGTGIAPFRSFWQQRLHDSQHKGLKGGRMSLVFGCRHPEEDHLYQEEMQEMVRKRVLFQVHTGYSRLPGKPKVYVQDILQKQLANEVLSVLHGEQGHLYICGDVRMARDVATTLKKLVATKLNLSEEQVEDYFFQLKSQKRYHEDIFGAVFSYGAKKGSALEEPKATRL

[5] = DRUGMATRIX: Interleukin IL-1 radioligand binding (ligand: [125I] interleukin 1beta); type: cell membranes, Membrane; details: nih3t3; Not Active = under 50% inhibition at 10 µM
[6] = DRUGMATRIX: Nicotinic Acetylcholine radioligand binding (ligand: [125I] Epibatidine); type: cell membranes, Membrane; details: imr-32; Not Active = under 50% inhibition at 10 µM
[7] = target: Sodium-dependent dopamine transporter (Homo sapiens, UniProt Q01959); test: DRUGMATRIX: Dopamine Transporter radioligand binding (ligand: [125I] RTI-55); type: cell membranes, CHO-K1, Membrane; details: cho-k1; Not Active = under 50% inhibition at 10 µM
Sodium-dependent dopamine transporter, sequence (Q01959 whole entry): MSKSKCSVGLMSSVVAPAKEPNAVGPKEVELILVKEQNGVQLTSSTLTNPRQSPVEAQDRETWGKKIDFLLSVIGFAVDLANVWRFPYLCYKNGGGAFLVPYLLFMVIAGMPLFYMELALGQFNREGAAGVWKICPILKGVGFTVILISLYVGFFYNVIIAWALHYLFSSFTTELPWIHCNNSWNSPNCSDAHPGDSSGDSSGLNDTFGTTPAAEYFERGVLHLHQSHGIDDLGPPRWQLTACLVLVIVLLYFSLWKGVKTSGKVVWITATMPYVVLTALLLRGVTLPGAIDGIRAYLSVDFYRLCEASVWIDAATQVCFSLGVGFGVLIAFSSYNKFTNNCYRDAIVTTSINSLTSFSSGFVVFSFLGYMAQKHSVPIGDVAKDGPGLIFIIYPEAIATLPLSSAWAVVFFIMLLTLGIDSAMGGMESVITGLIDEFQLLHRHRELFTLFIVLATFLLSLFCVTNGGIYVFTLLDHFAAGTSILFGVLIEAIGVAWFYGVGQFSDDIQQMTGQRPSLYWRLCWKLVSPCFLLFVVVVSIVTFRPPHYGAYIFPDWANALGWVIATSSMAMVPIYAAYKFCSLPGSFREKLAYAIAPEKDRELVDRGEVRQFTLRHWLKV

Voltage-gated inwardly rectifying potassium channel KCNH2, sequence (Q12809 whole entry): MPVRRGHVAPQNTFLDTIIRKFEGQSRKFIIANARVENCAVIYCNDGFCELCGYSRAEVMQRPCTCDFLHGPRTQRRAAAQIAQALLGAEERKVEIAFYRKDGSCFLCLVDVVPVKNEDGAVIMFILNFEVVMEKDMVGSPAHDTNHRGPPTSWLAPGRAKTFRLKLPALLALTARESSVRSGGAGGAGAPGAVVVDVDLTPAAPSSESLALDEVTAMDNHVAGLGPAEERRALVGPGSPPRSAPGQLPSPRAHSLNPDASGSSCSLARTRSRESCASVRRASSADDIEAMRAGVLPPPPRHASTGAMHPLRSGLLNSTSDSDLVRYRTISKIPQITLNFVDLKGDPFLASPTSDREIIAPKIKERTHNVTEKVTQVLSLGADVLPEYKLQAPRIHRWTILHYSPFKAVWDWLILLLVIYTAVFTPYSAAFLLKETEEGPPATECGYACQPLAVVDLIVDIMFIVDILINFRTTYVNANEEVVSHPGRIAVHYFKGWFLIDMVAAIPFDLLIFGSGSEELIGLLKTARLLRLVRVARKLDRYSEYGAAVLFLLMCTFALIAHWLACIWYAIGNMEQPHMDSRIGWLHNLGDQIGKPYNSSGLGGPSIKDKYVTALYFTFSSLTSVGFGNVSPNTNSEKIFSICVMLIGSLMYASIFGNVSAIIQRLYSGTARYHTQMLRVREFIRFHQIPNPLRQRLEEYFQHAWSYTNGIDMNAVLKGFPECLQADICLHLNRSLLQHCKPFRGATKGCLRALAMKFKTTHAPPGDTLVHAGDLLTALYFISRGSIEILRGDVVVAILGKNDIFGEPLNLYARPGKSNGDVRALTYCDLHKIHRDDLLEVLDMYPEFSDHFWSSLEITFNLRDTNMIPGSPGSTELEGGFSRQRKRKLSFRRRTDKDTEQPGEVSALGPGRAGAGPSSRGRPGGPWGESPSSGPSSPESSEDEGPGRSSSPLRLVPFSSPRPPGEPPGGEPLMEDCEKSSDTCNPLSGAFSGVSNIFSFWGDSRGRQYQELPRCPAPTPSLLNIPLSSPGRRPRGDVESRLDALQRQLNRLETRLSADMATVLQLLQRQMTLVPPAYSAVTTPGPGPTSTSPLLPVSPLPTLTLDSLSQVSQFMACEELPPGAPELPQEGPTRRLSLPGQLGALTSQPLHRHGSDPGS

Nc1cc(N2CCCCC2)nc(N)[n+]1[O-] [MINOXIDIL]
Not Active: IC50 [1] | Ki [1] | IC50 [2] | IC50 [3] | IC50 [4] | IC50 [5] | Ki [5] | IC50 [6] | Ki [6] | IC50 [7]

CC(C)NCC(O)c1ccc(NS(C)(=O)=O)cc1 (stereo not given) [SOTALOL]
Not Active: IC50 [1] | Ki [1] | IC50 [2] | IC50 [3] | IC50 [4] | IC50 [5] | Ki [5] | IC50 [6] | Ki [6] | IC50 [7]

CS(=O)(=O)c1ccc([C@@H](O)[C@@H](CO)NC(=O)C(Cl)Cl)cc1 [THIAMPHENICOL]
Not Active: IC50 [1] | Ki [1] | IC50 [2] | IC50 [3] | IC50 [4] | IC50 [5] | Ki [5] | IC50 [6] | Ki [6] | IC50 [7]

CCN1CCC[C@H]1CNC(=O)c1cc(S(N)(=O)=O)ccc1OC [LEVOSULPIRIDE]
Not Active: IC50 [1] | Ki [1] | IC50 [2] | IC50 [3] | IC50 [4] | IC50 [5] | Ki [5] | IC50 [6] | Ki [6] | IC50 [7]

CC(c1cc2ccccc2s1)N(O)C(N)=O (stereo not given) [ZILEUTON]
Not Active: IC50 [1] | Ki [1] | IC50 [2] | IC50 [3] | IC50 [4] | IC50 [5] | Ki [5] | IC50 [6] | Ki [6] | IC50 [7]

CCCCNc1ccc(C(=O)OCCN(C)C)cc1 [TETRACAINE]
Not Active: IC50 [1] | Ki [1] | IC50 [2] | IC50 [3] | IC50 [4] | IC50 [5] | Ki [5] | IC50 [6] | Ki [6] | IC50 [7]

CC[C@@H](C(=O)[C@@H](C)[C@@H](O)[C@H](C)[C@@H]1O[C@@H]([C@@H](CC)C(=O)O)CC[C@@H]1C)[C@H]1O[C@]2(C=C[C@@H](O)[C@]3(CC[C@@](C)([C@H]4CC[C@](O)(CC)[C@H](C)O4)O3)O2)[C@H](C)C[C@@H]1C [SALINOMYCIN]
Not Active: IC50 [1] | Ki [1] | IC50 [2] | IC50 [3] | IC50 [4] | IC50 [5] | Ki [5] | IC50 [6] | Ki [6] | IC50 [7]

CO[C@@H]1[C@@H](OC)[C@H](C)[C@@](O)(CC(=O)O)O[C@H]1[C@H](C)[C@H]1O[C@@]2(CC[C@@](C)([C@H]3CC[C@@](C)([C@@H]4O[C@@H]([C@H]5O[C@](C)(O)[C@H](C)C[C@@H]5C)C[C@@H]4O[C@@H]4C[C@H](OC)[C@@H](OC)[C@H](C)O4)O3)O2)C[C@H](O)[C@H]1C [MADURAMICIN ACID]
Not Active: IC50 [1] | Ki [1] | IC50 [2] | IC50 [3] | IC50 [4] | IC50 [5] | Ki [5] | IC50 [6] | Ki [6] | IC50 [7]

CC(C)Cc1ccc([C@@H](C)C(=O)O)cc1 [(R)-IBUPROPHEN]
Not Active: IC50 [1] | Ki [1] | IC50 [2] | IC50 [3] | IC50 [4] | IC50 [5] | Ki [5] | IC50 [6] | Ki [6] | IC50 [7]

NC(=O)N1C(=O)/C(=C(\O)c2cccs2)c2cc(Cl)ccc21 [TENIDAP]
Not Active: IC50 [1] | Ki [1] | IC50 [2] | IC50 [3] | IC50 [4] | IC50 [5] | Ki [5] | IC50 [6] | Ki [6] | IC50 [7]

O=C1C(CC[S+]([O-])c2ccccc2)C(=O)N(c2ccccc2)N1c1ccccc1 (stereo not given) [SULFINPYRAZONE]
Not Active: IC50 [1] | Ki [1] | IC50 [2] | IC50 [3] | IC50 [4] | IC50 [5] | Ki [5] | IC50 [6] | Ki [6] | IC50 [7]

CO[C@H]1/C=C/O[C@@]2(C)Oc3c(C)c(O)c4c(O)c(c(/C=N/N5CCN(C6CCCC6)CC5)c(O)c4c3C2=O)NC(=O)/C(C)=C\C=C\[C@H](C)[C@H](O)[C@@H](C)[C@@H](O)[C@@H](C)[C@H](OC(C)=O)[C@@H]1C [RIFAPENTINE]
Not Active: IC50 [1] | Ki [1] | IC50 [2] | IC50 [3] | IC50 [4] | IC50 [5] | Ki [5] | IC50 [6] | Ki [6] | IC50 [7]

Cn1c(=O)c2nc[nH]c2n(C)c1=O.O [THEOPHYLLINE]
Not Active: IC50 [1] | Ki [1] | IC50 [2] | IC50 [3] | IC50 [4] | IC50 [5] | Ki [5] | IC50 [6] | Ki [6] | IC50 [7]

CCCCOc1cc(CC2CNC(=O)N2)ccc1OC (stereo not given) [RO-201724]
Not Active: IC50 [1] | Ki [1] | IC50 [2] | IC50 [3] | IC50 [4] | IC50 [5] | Ki [5] | IC50 [6] | Ki [6] | IC50 [7]

N#Cc1ccc(C(c2ccc(C#N)cc2)n2cncn2)cc1 [LETROZOLE]
Not Active: IC50 [1] | Ki [1] | IC50 [2] | IC50 [3] | IC50 [4] | IC50 [5] | Ki [5] | IC50 [6] | Ki [6] | IC50 [7]

CN(C/C=C/C#CC(C)(C)C)Cc1cccc2ccccc12 [TERBINAFINE]
Not Active: IC50 [1] | Ki [1] | IC50 [2] | IC50 [3] | IC50 [4] | IC50 [5] | Ki [5] | IC50 [6] | Ki [6] | IC50 [7]

O=C1Nc2ccc(Cl)cc2C(c2ccccc2Cl)=NC1O (stereo not given) [LORAZEPAM]
Not Active: IC50 [1] | Ki [1] | IC50 [2] | IC50 [3] | IC50 [4] | IC50 [5] | Ki [5] | IC50 [6] | Ki [6] | IC50 [7]
